Patent US20120252791A1, “Heterocyclic GTP Cyclohydrolase 1 Inhibitors For the Treatment of Pain” (priority 2009, published 2012)
Like-named read-outs stand apart in the source and are kept apart here.

Target: T1, GCH-1 (Homo sapiens, UniProt P30793)
T1 sequence (P30793 1-250): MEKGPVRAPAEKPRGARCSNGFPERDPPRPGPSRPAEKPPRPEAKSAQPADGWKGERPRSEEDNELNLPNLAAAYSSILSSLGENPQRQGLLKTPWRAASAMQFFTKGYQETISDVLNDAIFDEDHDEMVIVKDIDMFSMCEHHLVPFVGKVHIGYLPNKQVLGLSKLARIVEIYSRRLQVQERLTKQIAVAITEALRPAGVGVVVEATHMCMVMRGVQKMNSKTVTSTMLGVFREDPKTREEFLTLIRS
Assay: LC/MS assay monitoring GTP consumption and neopterin formation by GCH-1
Format: biochemical
Conditions: 2 μM GCH-1, 120 μM GTP, 1 hour at 37° C.
Experimental: This method is based on transformations known in the art (see, for example, Xie et al., J. Biol. Chem. 273(33):21091-21098, 1998). The LC-MS assay is carried out by the following steps.
(1) GCH-1 reaction • 2 μM GCH-1, 120 μM GTP, 1 hour incubation at 37° C. (2) Termination of GCH-1 reaction by de-phosphorylation • The reaction is stopped by the addition of excess alkaline phosphatase (2 units/sample) • 1 hour incubation at 37° C. (3) Oxidation of 7,8-dihydroneopterin to get a stabile final product • Oxidation with 0.1 M […] for 1 hour at 37° C. resulting in oxidation of 7,8-dihydroneopterin to neopterin • Termination of the oxidation reaction by addition of ascorbic acid
• Sample analysis using highly specific LC/MS methods to detect guanosine and neopterin in parallel • Data analysis and automated CRC fitting to get IC50 values

[1] = Table 8, LC/MS assay, read-out: IC50

| SMILES | IC50 (assay validation with known GCH-1 inhibitors, read-out: IC50 [μM] LC/MS assay) [µM] | IC50 [1] [µM] |
| --- | --- | --- |
| Nc1nc2[nH]c(S)nc2c(=O)[nH]1 [8-mercaptoguanine, reference compound] | 5 | – |
| COCCSc1nc2c(=O)[nH]c(N)nc2[nH]1 [(6)] | – | 25 |
| Nc1nc2[nH]c(SCC3CCOCC3)nc2c(=O)[nH]1 [(9)] | – | 39 |
| Nc1nc2[nH]c(N)nc2c(=O)[nH]1 [(31)] | – | 27 |
| CCOc1ccccc1NC(=O)CSc1nc2c(O)nc(N)nc2[nH]1 [(56)] | – | 40 |
| CCCSc1nc2c(=O)[nH]c(N)nc2[nH]1 [Compound (3)] | – | 14 |
| CCCSc1nc2c(=O)[nH]c(N)nc2n1C [Compound (4)] | – | 85 |
| Cn1c(=S)[nH]c2nc(N)[nH]c(=O)c21 [Compound (13)] | – | 76 |
| COCCn1cnc2c(=O)[nH]c(N)nc21 [Compound (29)] | – | > 400 |
| Nc1nc2[nH]ccc2c(=O)[nH]1 [Compound (37)] | – | 43 |
| Cn1ccc2c(=O)[nH]c(N)nc21 [Compound (38)] | – | 193 |
| Cc1cn(C)c2nc(N)[nH]c(=O)c12 [Compound (40)] | – | > 400 |
